These results are taken from paper PMC9544596 (Journal of Clinical Pharmacology, 2022).

As usually defined, the MIC50 is an inhibitory concentration at the 50% level, which refers to growth in some studies and to a panel of isolates in others.

Data set [1] is described as follows: Population pharmacokinetic model of vancomycin.
For a further data set, the system named is Enterococcus spp. Kind of data set: Vancomycin MIC of cultured clinical isolates. In kind it is cell-based.

As to `CN[C@H](CC(C)C)C(=O)N[C@H]1C(=O)N[C@@H](CC(N)=O)C(=O)N[C@H]2C(=O)N[C@H]3C(=O)N[C@H](C(=O)N[C@H](C(=O)O)c4cc(O)cc(O)c4-c4cc3ccc4O)[C@H](O)c3ccc(c(Cl)c3)Oc3cc2cc(c3O[C@@H]2O[C@H](CO)[C@@H](O)[C@H](O)[C@H]2O[C@H]2C[C@](C)(N)[C@H](O)[C@H](C)O2)Oc2ccc(cc2Cl)[C@H]1O` [vancomycin], in data set [1] (1000 bootstrap replicates), the “CL, bootstrap of final model estimate” value is given as 1.23 L/h; the “Vd, bootstrap of final model estimate” value is 66.51 L; the “θ1, bootstrap of final model estimate” value was 1.00. For the same compound, the “Vd, final model estimate” value in data set [1] (Thai GFR not indexed to BSA final model) is reported as 67.46 L. In addition, the MIC50 in the data set with Enterococcus spp. (Enterococcus, read-out: MIC50 (min-max)) was found to be 1 µg/mL. In addition, the “MIC50 (min-max)” value with Enterococcus spp. (patients without shock, 6 isolates) was determined as 1 µg/mL. In addition, the “MIC50 (min-max)” value in the data set on Enterococcus spp. (septic shock patients, 5 isolates) was 1 µg/mL.
